# Results taken from US5332742A, “Renin inhibitors” (Abbott Laboratories, priority 1993, dated 1994).
# Tests used:
# [1] = biological target: T1, human renal renin (Homo sapiens, UniProt P00797); experiment: In vitro inhibition of human renal renin (angiotensin I formation measured by radioimmunoassay); assay type: biochemical; details: human renal renin with human angiotensinogen, 37 degrees C., pH 6.5
# T1 construct: human renal renin, free from acid proteolytic activity; from tissue; host or cells: human kidney ('renal')
# T1 sequence (P00797 67-406): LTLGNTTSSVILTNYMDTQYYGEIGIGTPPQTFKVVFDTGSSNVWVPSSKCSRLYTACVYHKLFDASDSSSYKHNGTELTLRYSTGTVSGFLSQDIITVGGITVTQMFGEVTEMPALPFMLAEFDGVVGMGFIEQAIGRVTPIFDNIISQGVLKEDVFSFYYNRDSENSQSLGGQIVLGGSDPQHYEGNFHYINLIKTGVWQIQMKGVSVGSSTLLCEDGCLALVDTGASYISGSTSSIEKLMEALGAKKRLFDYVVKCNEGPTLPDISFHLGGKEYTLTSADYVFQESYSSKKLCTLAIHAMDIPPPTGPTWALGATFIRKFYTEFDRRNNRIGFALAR
# Experimental: At the end of the incubation, the amount of angiotensin I formed is measured by radioimmunoassay and the molar concentration required to cause 50% inhibition, expressed as the IC50 is calculated .
# [2] = biological target: T2, renin (Canis lupus familiaris, UniProt Q6DYE7); experiment: Plasma renin activity (PRA) in salt-depleted dogs after i.v. or p.o. dosing; assay type: in vivo, dog; details: salt-depleted male beagle dogs; 10 mg/kg i.v. (in D5W) or 10 mg/kg p.o. (in methylcellulose); FIG. 1B
# T2 construct: from tissue; host or cells: circulating plasma renin of salt-depleted beagle dogs (in vivo)
# T2 sequence (Q6DYE7 66-403): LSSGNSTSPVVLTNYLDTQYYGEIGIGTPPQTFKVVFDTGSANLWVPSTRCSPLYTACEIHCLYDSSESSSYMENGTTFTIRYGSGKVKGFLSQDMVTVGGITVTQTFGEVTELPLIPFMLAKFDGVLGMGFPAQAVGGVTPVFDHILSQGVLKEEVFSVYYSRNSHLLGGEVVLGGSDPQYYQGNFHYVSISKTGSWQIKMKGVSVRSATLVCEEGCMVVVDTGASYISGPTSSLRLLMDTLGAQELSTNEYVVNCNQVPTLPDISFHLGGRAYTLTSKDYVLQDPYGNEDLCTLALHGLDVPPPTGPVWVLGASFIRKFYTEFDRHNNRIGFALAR
# Experimental: (§1) Male beagle dogs (8-12 kg, Marshall/Hazelton) were converted to a salt-depleted status by dosing on the three consecutive days prior to the experiment with furosemide (Phoenix Pharmaceuticals, 10 mg/kg i.m.) and by placing them on a low sodium diet (approximately 2-5 meq/day; H/D; Hills Pet Products). Prior to the study, each dog was instrumented with an indwelling catheter ana conditioned to stand calmly in a restraining sling for periods of up to 8 hours. On the morning of the experiment, the arteriai catheter was connected to a Sorenson Transpac II® pressure transducer (Abbott Laboratories). For dogs receiving intravenous (i.v.) doses, a catheter (Abbott; 16 ga Venocath) was introduced in a rear leg saphenous vein by venipuncture. For dogs receiving receiving oral (p.o.) doses by garage, an 18 Fr. suction catheter (Mallinckrodt Critical Care) was used. Data samples of systemic hemodynamic variables were acquired by the MI2 computer at 5 minute intervals beginning 90 minutes prior to administration of the test compound and ending 6 hours after dosing. Arterial blood smaples (3.0 ml) to determine plasma drug concentrations and plasma renin activity (PRA) were taken for i.v. doses at -60, -30, 3, 10, 30, 60, 120, 240 and 360 minutes an for p.o. doses at --60, -30, 15, 30, 60, 90, 120, 180 and 360 minutes relative to the time of test compound administration. […]
# [3] = Mean arterial blood pressure in salt-depleted dogs after i.v. or p.o. dosing; assay type: in vivo, dog; details: salt-depleted male beagle dogs; 10 mg/kg i.v. (in D5W) or 10 mg/kg p.o. (in methylcellulose); FIG. 1A
# Experimental: as §1
IC50 [1],plasma renin activity (PRA) [2],Compound,mean arterial pressure (MAP) [3]
330 pM,,"CC(C)C[C@H](O)[C@H](O)[C@H](CC1CCCCC1)NC(=O)[C@H](Cc1cscn1)NC(=O)[C@H](Cc1ccccc1)CS(=O)(=O)N1CCNCC1 [Example 6D, (2S)-2-Benzyl-3-(piperazin-4-ylsulfonyl)propionyl-(L)-(4-Thiazolyl)Ala Amide of (2 S, 3R, 4S)-2-Amin0-1-cyclohexyl-3,4-dihydroxy-6-methylheptane]",
300 pM,,"CC(C)C[C@H](O)[C@H](O)[C@H](CC1CCCCC1)NC(=O)[C@H](Cc1cscn1)NC(=O)[C@H](Cc1ccccc1)CS(=O)(=O)N1CC[N+](C)([O-])CC1 [Example 10B, (2S)-2-Benzyl-3-(1-methyl-1-oxo-piperazin-4-ylsulfonyl)propionyl-(L)-(4Thiazolyl)Ala Amide of (2S,3R,4S)-2-Amino-1-cyclohexyl-3,4-dihydroxy-6-methylheptane]",
280 pM,,CC(C)C[C@H](O)[C@H](O)[C@H](CC1CCCCC1)NC(=O)[C@H](Cc1cscn1)NC(=O)[C@H](Cc1ccccc1)CS(=O)(=O)N1CCNC(=O)C1 [Example 11F],
450 pM,,"CC(C)C[C@H](O)[C@H](O)[C@H](CC1CCCCC1)NC(=O)[C@H](Cc1cscn1)N(C)C(=O)C(CCc1ccccc1)NS(=O)(=O)N1CCN(C)CC1 (stereo partly drawn) [Example 12F, (4-Methylpiperazin-1-yl) sulfonyl-(Phenylmethyl)alanine-N-Methyl-3-(4-thiazolyl)-L-alanine Amide of (2S,3R,4S)-2-Amino-1-cyclohexyl-3,4-dihydroxy-6-methylheptane]",
220 pM,,CC(C)C[C@H](O)[C@H](O)[C@H](CC1CCCCC1)NC(=O)[C@H](Cc1cscn1)NC(=O)C(Cc1ccccc1)NS(=O)(=O)N1CCN(C)CC1 (stereo partly shown) [Example 13C],
,inhibits renin in vivo,"CC(C)C[C@H](O)[C@H](O)[C@H](CC1CCCCC1)NC(=O)[C@H](Cc1cscn1)NC(=O)[C@H](Cc1ccccc1)CS(=O)(=O)N1CCN(C)CC1.CS(=O)(=O)O [Example 17B, (2S)-2-Benzyl-3-(1-methyl-piperazin-4-ylsulfonyl) propionyl-(L)-(4-Thiazolyl)Ala Amide of (2S,3R,4S)-2-Amino-1-cyclohexyl-3,4-dihydroxy-6-methylheptane methanesulfonate salt]",effective for reducing blood pressure
